pIC50: −log10 of the molar value.
Columns and labels:
[1] = biological target: T1, human Dopamine D2L receptor (Homo sapiens, UniProt P14416); assay: In vitro binding affinity for human D2L receptor ([3H]spiperone competition); conditions: membranes of human D2L receptor-transfected CHO cells, 30 min, 37° C.
T1 construct: expressed in transfected cells; host or cells: CHO cells
Experimental: Frozen membranes of human Dopamine D2L receptor-transfected CHO cells were thawed, briefly homogenised using an Ultra-Turrax T25 homogeniser and diluted in Tris-HCl assay buffer containing NaCl, CaCl2, MgCl2, KCl (50, 120, 2, 1, and 5 mM respectively, adjusted to pH 7.7 with HCl) to an appropriate protein concentration optimised for specific and non-specific binding. Radioligand [^3H]Spiperone (NEN, specific activity ˜70 Ci/mmol) was diluted in assay buffer at a concentration of 2 nmol/L. Prepared radioligand (50 μl), along with 50 μl of either the 10% DMSO control, Butaclamol (10^−6 mol/l final concentration), or compound of interest, was then incubated (30 min, 37° C.) with 400 μl of the prepared membrane solution. Membrane-bound activity was filtered through a Packard Filtermate harvester onto GF/B Unifilterplates and washed with ice-cold Tris-HCl buffer (50 mM; pH 7.7; 6×0.5 ml). Filters were allowed to dry before adding scintillation fluid and counting in a Topcount scintillation counter. Percentage specific bound and competition binding curves were calculated using S-Plus software (Insightful).

T1 sequence (P14416 whole entry): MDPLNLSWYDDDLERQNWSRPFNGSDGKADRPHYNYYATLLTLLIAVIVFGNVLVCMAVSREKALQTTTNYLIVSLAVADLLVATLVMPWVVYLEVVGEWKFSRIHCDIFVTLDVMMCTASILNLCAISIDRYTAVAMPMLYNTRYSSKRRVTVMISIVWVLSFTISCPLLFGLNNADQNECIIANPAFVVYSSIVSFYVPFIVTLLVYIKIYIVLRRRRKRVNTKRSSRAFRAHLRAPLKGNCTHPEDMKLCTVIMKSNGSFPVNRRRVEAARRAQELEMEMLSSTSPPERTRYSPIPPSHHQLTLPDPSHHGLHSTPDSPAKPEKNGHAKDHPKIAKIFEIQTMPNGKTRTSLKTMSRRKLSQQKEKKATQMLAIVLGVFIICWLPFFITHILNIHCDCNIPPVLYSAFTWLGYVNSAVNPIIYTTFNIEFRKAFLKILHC

| SMILES | pIC50 [1] | melting point |
| --- | --- | --- |
| CC(c1ccc(F)c(F)c1)N1CCC(Nc2ccc(C(F)(F)F)nn2)CC1 (racemic) [Example E45, (R,S)—N-[1-(3,4-difluoro-α-methylbenzyl)piperidin-4-yl]-6-(trifluoromethyl)pyridazin-3-amine] | > 5.20 |  |
| CN(c1ccc(Cl)nn1)C1CCN(Cc2cccc(C(F)(F)F)c2)CC1 [Example E25, N-[1-(3-trifluoromethylbenzyl)piperidin-4-yl]-N-methyl-6-chloropyridazin-3-amine] | > 5.20 |  |
| CC(c1ccc(F)cc1)N1CCC(Nc2ccc(C(F)(F)F)nn2)CC1 (stereo not drawn) [Example E44, N-[1-(4-fluoro-α-methylbenzyl)piperidin-4-yl]-6-(trifluoromethyl)pyridazin-3-amine] | > 5.20 |  |

Results, then the compound that gave them:

| pIC50 [1] | melting point | SMILES |
| --- | --- | --- |
|  | 163.3 to 165.3 °C | Fc1ccc(CN2CCC(Nc3ccc(C(F)(F)F)nn3)CC2)cc1 [Example E2, N-[1-(4-fluorobenzyl)piperidin-4-yl]-6-(trifluoromethyl)pyridazin-3-amine] |
| > 5.20 |  | Fc1ccccc1CN1CCC(Nc2ccc(C(F)(F)F)nn2)CC1 [Example E8, N-[1-(2-fluorobenzyl)piperidin-4-yl]-6-(trifluoromethyl)pyridazin-3-amine] |
| > 5.20 |  | COc1ccc(CN2CCC(Nc3ccc(C(F)(F)F)nn3)CC2)cc1F [Example E41, N-[1-(3-fluoro-4-methoxybenzyl)piperidin-4-yl]-6-(trifluoromethyl)pyridazin-3-amine] |
| > 5.20 |  | Fc1ccc(CN2CCC(Nc3ccc(C(F)(F)F)nn3)CC2)c(F)c1 [Example E42, N-[1-(2,4-difluorobenzyl)piperidin-4-yl]-6-(trifluoromethyl)pyridazin-3-amine] |
